Measured values published in patent US20050282159A1, “Rpob gene of streptomyces, primer specific to streptomyces, and identification method of streptomyces having rifampin resistance or sensitivity by using the same” (priority 2001, published 2005).

Experiments:
S. alboviridis KCTC 9750 = assay: rifampin-sensitive test on Bennet solid media; assay type: cell-based; set-up: key to genotype (rifampin-resistance or susceptibility): “(+)” indicates a genotype with rifampin-resistance; “(−)” indicates a genotype with rifampin-susceptibility
Procedure: (§1) The 47 strains were respectively cultured at 28° C. for 72 hr in Bennet liquid media. The culture solution was then inoculated on Bennet solid media (yeast extract 1 g/L, Beef extract 1 g/L, Tryptone 2 g/L, Glycerol 10 g/L, Agar 15 g/L) containing 25 ug/ml rifampin, and after incubation for 72 hr, rifampin-resistance was tested.

S. cinerous KCTC 9066 = assay: rifampin-sensitive test on Bennet solid media; assay type: cell-based; set-up: key to genotype (rifampin-resistance or susceptibility): “(+)” indicates a genotype with rifampin-resistance; “(−)” indicates a genotype with rifampin-susceptibility
Procedure: as §1

[1] = tested on: S. aburaviensis KCTC 9663; conditions: TCG (TCC) genotype
Procedure: (§2) The primer sets of SEQ ID NOs: 1 and 2 were used to amplify rpoB genes of 60 strains, and nucleotides of the […] products were analyzed with an automatic sequencer. SRPOF1 as a forward primer and SRPOR1 as a backward primer were used.

S. albaduncus KCTC 1741 = conditions: AAC genotype
Procedure: as §2

S. anulatus KCCM 40190 = conditions: AAC genotype
Procedure: as §2

S. chivaensis KCTC 9786 = conditions: AAC genotype
Procedure: as §2

[2] = tested on: S. citreofluorescens KCTC 9710; conditions: TCG (TCC) genotype
Procedure: as §2

S. cremeus KCCM 40509 = conditions: TCG (TCC) genotype
Procedure: as §2

S. fumanus KCCM 40522 = conditions: TCG (TCC) genotype
Procedure: as §2

S. murinus KCTC 9492 = conditions: AAC genotype
Procedure: as §2

CO[C@H]1/C=C/O[C@@]2(C)Oc3c(C)c(O)c4c(O)c(c(/C=N/N5CCN(C)CC5)c(O)c4c3C2=O)NC(=O)/C(C)=C\C=C\[C@H](C)[C@H](O)[C@@H](C)[C@@H](O)[C@@H](C)[C@H](OC(C)=O)[C@@H]1C [rifampin]
growth in media containing rifampin (S. alboviridis KCTC 9750; S. alboviridis (KCTC 9750), Bennet solid media, FIG. 7 (B)): did not show growth
genotype (rifampin-resistance or susceptibility) (S. alboviridis KCTC 9750; S. alboviridis KCTC 9750, TCG (TCC) genotype, 25 ug/ml rifampin, 72 hr): −
growth in media containing rifampin (S. cinerous KCTC 9066; S. cinerous (KCTC 9066), Bennet solid media, FIG. 7 (A)): generated colonies
genotype (rifampin-resistance or susceptibility) (S. cinerous KCTC 9066; S. cinerous KCTC 9066, AAC genotype, 25 ug/ml rifampin, 72 hr): +
genotype (rifampin-resistant or -sensitive strain) [1]: −
genotype (rifampin-resistant or -sensitive strain) (S. albaduncus KCTC 1741): +
genotype (rifampin-resistant or -sensitive strain) (S. anulatus KCCM 40190): +
genotype (rifampin-resistant or -sensitive strain) (S. chivaensis KCTC 9786): +
genotype (rifampin-resistant or -sensitive strain) [2]: −
genotype (rifampin-resistant or -sensitive strain) (S. cremeus KCCM 40509): −
genotype (rifampin-resistant or -sensitive strain) (S. fumanus KCCM 40522): −
genotype (rifampin-resistant or -sensitive strain) (S. murinus KCTC 9492): +
